Assay results taken from ChEMBL document CHEMBL3217639, “Property based optimisation of glucokinase activators discovery of the phase IIb clinical candidate AZD1656” (Medchemcomm, 2012).
In brackets after ≈: the same amount, converted by molar mass.

What was measured:
Salmonella typhimurium = assay: Genotoxicity in Salmonella typhimurium by Ames test; assay type: toxicity, organism-based; conditions: salmonella enterica subsp. enterica serovar typhimurium
[1] = Crystalline solubility of the compound; assay type: physicochemical
[2] = Apparent permeability from apical to basolateral side in MDCK cells expressing human MDR1; assay type: ADME, cell-based, Canis lupus familiaris; conditions: dog
Rattus norvegicus [3] = species on record: Rattus norvegicus; assay: Unbound clearance in rat; assay type: ADME, organism-based; conditions: in vivo
Canis familiaris = species on record: Canis familiaris; assay: Unbound clearance in dog; assay type: ADME, organism-based, Canis lupus familiaris; conditions: in vivo
Rattus norvegicus [4] = assay: Antidiabetic activity in high fat fed Zucker rat assessed as reduction of AUC of plasma glucose level at 3 mg/kg by oral glucose tolerance test; assay type: functional; design: scale not given: the % may be the effect or the level left
Hexokinase-4 = target: T1, Hexokinase-4 (Homo sapiens, UniProt P35557); assay: […] of recombinant human pancreatic glucokinase by G-6-P dehydrogenase assay
T1 sequence (P35557 whole entry): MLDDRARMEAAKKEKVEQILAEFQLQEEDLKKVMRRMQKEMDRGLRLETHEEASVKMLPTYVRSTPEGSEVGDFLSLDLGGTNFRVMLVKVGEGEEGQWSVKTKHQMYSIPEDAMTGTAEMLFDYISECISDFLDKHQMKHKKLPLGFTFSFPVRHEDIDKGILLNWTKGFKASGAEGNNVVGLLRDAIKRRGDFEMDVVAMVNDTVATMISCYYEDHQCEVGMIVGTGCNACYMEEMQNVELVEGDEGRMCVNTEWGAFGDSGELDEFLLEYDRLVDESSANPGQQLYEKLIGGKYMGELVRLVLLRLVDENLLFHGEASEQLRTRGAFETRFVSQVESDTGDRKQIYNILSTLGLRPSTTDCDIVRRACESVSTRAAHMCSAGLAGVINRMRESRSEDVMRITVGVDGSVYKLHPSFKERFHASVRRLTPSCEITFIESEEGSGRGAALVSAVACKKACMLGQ

[5] = Lipophilicity, log D of the compound; assay type: physicochemical; conditions: octanol/water
[6] = target: Voltage-gated inwardly rectifying potassium channel KCNH2 (Homo sapiens, UniProt Q12809)
Sequence of Voltage-gated inwardly rectifying potassium channel KCNH2 (Q12809 whole entry): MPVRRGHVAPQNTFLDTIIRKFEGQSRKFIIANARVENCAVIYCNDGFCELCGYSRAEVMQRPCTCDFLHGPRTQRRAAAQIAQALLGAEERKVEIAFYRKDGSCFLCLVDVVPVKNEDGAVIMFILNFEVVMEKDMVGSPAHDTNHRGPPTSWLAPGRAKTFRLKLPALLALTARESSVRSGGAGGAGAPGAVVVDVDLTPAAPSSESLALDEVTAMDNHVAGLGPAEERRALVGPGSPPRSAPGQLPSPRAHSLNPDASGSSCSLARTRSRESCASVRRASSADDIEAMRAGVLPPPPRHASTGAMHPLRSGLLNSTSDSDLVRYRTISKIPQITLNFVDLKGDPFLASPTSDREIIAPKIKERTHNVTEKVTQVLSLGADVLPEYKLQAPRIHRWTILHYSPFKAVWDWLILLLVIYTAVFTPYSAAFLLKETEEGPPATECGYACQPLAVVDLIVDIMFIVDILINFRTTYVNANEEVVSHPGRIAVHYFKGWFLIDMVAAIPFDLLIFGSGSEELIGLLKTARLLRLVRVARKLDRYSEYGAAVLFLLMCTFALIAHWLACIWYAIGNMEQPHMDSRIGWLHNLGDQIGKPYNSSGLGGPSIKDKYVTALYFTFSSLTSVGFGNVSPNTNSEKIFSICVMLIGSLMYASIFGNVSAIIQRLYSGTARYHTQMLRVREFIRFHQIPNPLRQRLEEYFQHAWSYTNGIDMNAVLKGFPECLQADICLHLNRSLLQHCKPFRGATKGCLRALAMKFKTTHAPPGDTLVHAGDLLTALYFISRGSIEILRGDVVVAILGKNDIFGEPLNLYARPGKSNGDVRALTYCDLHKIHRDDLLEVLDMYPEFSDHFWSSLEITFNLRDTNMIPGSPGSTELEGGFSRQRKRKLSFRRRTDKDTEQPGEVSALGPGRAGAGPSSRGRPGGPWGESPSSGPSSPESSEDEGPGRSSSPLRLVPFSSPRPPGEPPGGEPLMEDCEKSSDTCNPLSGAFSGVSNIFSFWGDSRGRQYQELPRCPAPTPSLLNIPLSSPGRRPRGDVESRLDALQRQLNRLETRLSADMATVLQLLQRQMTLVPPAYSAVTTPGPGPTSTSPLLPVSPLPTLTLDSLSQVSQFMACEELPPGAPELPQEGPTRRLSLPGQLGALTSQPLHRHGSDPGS

[7] = Clearance in rat; assay type: ADME, organism-based; conditions: in vivo
[8] = Volume of distribution at steady state in rat; assay type: ADME, organism-based; conditions: in vivo, read-out: Vdss
[9] = Oral bioavailability in rat; assay type: ADME, organism-based; conditions: in vivo
[10] = Clearance in dog; assay type: ADME, organism-based, Canis lupus familiaris; conditions: in vivo
[11] = Volume of distribution at steady state in dog; assay type: ADME, organism-based, Canis lupus familiaris; conditions: in vivo, read-out: Vdss
[12] = Oral bioavailability in dog; assay type: ADME, organism-based, Canis lupus familiaris; conditions: in vivo
Rattus norvegicus [13] = assay: Antidiabetic activity in high fat fed Zucker rat assessed as reduction of AUC of plasma glucose level at 1 mg/kg by oral glucose tolerance test; assay type: functional; design: scale not given: the % may be the effect or the level left

Row | solubility thermodynamic [1] | Papp A→B [2] | EC50 (Hexokinase-4) | logD [5] | Structure (SMILES) | IC50 [6] | further results
1 | 350 µM (≈ 158 µg/mL) | 1.2 ×10⁻⁶ cm/s | – | – | C[C@@H](CO)Oc1cc(Oc2ccc(C(=O)N3CCC3)cc2)cc(C(=O)Nc2ccn(C)n2)c1 | – | CL free (Rattus norvegicus [3]): 480 mL/min/kg; CL free (Canis familiaris): 61 mL/min/kg; Activity (Rattus norvegicus [4]): 24%
2 | 280 µM (≈ 130 µg/mL) | 1.6 ×10⁻⁶ cm/s | 31 nM | 2.4 | CCn1ccc(NC(=O)c2cc(Oc3ccc(C(=O)N4CCC4)cc3)cc(O[C@@H](C)CO)c2)n1 | – | –
3 | 44 µM (≈ 21.1 µg/mL) | – | 73 nM | 2.8 | CC(C)n1ccc(NC(=O)c2cc(Oc3ccc(C(=O)N4CCC4)cc3)cc(O[C@@H](C)CO)c2)n1 | 31000 nM | –
4 | 670 µM (≈ 292 µg/mL) | 0.8 ×10⁻⁶ cm/s | 53 nM | 2 | C[C@@H](CO)Oc1cc(Oc2ccc(C(=O)N3CCC3)cc2)cc(C(=O)Nc2cc[nH]n2)c1 | > 100000 nM | –
5 | 17 µM (≈ 7.97 µg/mL) | 5.2 ×10⁻⁶ cm/s | 35 nM | 2.7 | Cc1nsc(NC(=O)c2cc(Oc3ccc(C(=O)N4CCC4)cc3)cc(O[C@@H](C)CO)c2)n1 | 11000 nM | –
6 | 17 µM (≈ 7.86 µg/mL) | 4.1 ×10⁻⁶ cm/s | 61 nM | 2.4 | Cc1cnc(NC(=O)c2cc(Oc3ccc(C(=O)N4CCC4)cc3)cc(O[C@@H](C)CO)c2)cn1 | 38000 nM | –
7 | 490 µM (≈ 228 µg/mL) | 12 ×10⁻⁶ cm/s | 37 nM | 2.5 | COC[C@H](C)Oc1cc(Oc2ccc(C(=O)N3CCC3)cc2)cc(C(=O)Nc2ccn(C)n2)c1 | – | –
8 | 125 µM (≈ 54.3 µg/mL) | – | 110 nM | 3.3 | CC(C)Oc1cc(Oc2ccc(C(=O)N3CCC3)cc2)cc(C(=O)Nc2ccn(C)n2)c1 | 27000 nM | –
9 | 30 µM (≈ 14.3 µg/mL) | 29 ×10⁻⁶ cm/s | 73 nM | 2.9 | COC[C@H](C)Oc1cc(Oc2ccc(C(=O)N3CCC3)cc2)cc(C(=O)Nc2cnc(C)cn2)c1 | – | –
10 | 21 µM (≈ 10 µg/mL) | 18 ×10⁻⁶ cm/s | 36 nM | 2.9 | COC[C@H](C)Oc1cc(Oc2ccc(C(=O)N3CCC3)nc2)cc(C(=O)Nc2cnc(C)cn2)c1 | 40000 nM | –
11 | – | – | 370 nM | – | COC[C@H](C)Oc1cc(Oc2ccc(C(=O)N3CCC3)cn2)cc(C(=O)Nc2cnc(C)cn2)c1 | – | –
12 | 8 µM (≈ 4.1 µg/mL) | – | 60 nM | 2.8 | COC[C@H](C)Oc1cc(Oc2ncc(C(=O)N3CCC3)cc2Cl)cc(C(=O)Nc2cnc(C)cn2)c1 | – | –
13 | 280 µM (≈ 134 µg/mL) | 35 ×10⁻⁶ cm/s | 61 nM | 2.4 | COC[C@H](C)Oc1cc(Oc2cnc(C(=O)N3CCC3)cn2)cc(C(=O)Nc2cnc(C)cn2)c1 [AZD-1656] | > 100000 nM | clearance [7]: 16 mL/min/kg; CL free (Rattus norvegicus [3]): 310 mL/min/kg; Vd [8]: 0.5 L/kg; bioavailability [9]: 100%; clearance [10]: 8.1 mL/min/kg; CL free (Canis familiaris): 50 mL/min/kg; Vd [11]: 1.5 L/kg; bioavailability [12]: 100%; Activity (Rattus norvegicus [13]): 43%

More lines, now with the values behind:

Row | Structure (SMILES) | solubility thermodynamic [1] | Papp A→B [2] | EC50 (Hexokinase-4) | logD [5] | IC50 [6] | further results
14 | Nc1cc[nH]n1 | – | – | – | – | – | Activity (Salmonella typhimurium): Non-toxic
15 | C[C@@H](CO)Oc1cc(Oc2ccc(C(=O)N3CCC3)cc2)cc(C(=O)Nc2nccs2)c1 | 9 µM (≈ 4.08 µg/mL) | – | 32 nM | 3.1 | 9000 nM | –
16 | Cn1ccc(N)n1 | – | – | – | – | – | Activity (Salmonella typhimurium): Toxic
17 | CCn1ccc(N)n1 | – | – | – | – | – | Activity (Salmonella typhimurium): Toxic
18 | CC(C)n1ccc(N)n1 | – | – | – | – | – | Activity (Salmonella typhimurium): Toxic
19 | Cc1cnc(N)cn1 | – | – | – | – | – | Activity (Salmonella typhimurium): Non-toxic
20 | Cn1ccc(NC(=O)c2cc(Oc3ccc(C(=O)N4CCC4)cc3)cc(O[C@H]3CCOC3)c2)n1 | 180 µM (≈ 83.3 µg/mL) | 6.4 ×10⁻⁶ cm/s | 70 nM | 2.2 | – | –
21 | Cn1ccc(NC(=O)c2cc(Oc3ccc(C(=O)N4CCC4)cc3)cc(OC3CCOCC3)c2)n1 | 170 µM (≈ 81 µg/mL) | – | 170 nM | – | – | –
22 | Cn1ccc(NC(=O)c2cc(Oc3ccc(C(=O)N4CCC4)cc3)cc(OC(CF)CF)c2)n1 | 11 µM (≈ 5.18 µg/mL) | 7 ×10⁻⁶ cm/s | 47 nM | 2.6 | – | –
23 | Cc1nsc(N)n1 | – | – | – | – | – | Activity (Salmonella typhimurium): Non-toxic
24 | Nc1nccs1 [AMINOTHIAZOLE] | – | – | – | – | – | Activity (Salmonella typhimurium): Non-toxic
